From patent US12516070B2, “Fused ring derivatives and use thereof in pharmacy” (priority 2020, dated 2026)
Like-named read-outs stand apart in the source and are kept apart here.

Legend:
[1] = test system: influenza A virus A/PR/8/34 (H1N1); experiment: Influenza virus cytopathic effect (CPE) assay, A/PR/8/34 (H1N1); format: cell-based; conditions: MDCK cells, 5 days, CCK8, read-out: EC50, inhibitory activity against influenza A virus A/PR/8/34 (H1N1)
[2] = format: in vivo, Beagle dogs; conditions: Dog, PO, 1 mpk of 8B; concentration of 7B detected
Protocol: (§1) Experimental objectives: To evaluate the druggability of the compounds by measuring pharmacokinetic properties in different animal species.
(§2) Experimental materials: Sprague-Dawley strain rats, Beagle dogs, cynomolgus monkeys.
(§3) The animal pharmacokinetic properties of the compound after intravenous injection and oral administration were tested by standard protocols, in which the candidate compound was prepared as a clear solution (intravenous injection) or as a homogeneous suspension (oral administration), and administered as a single dose to the animals. The vehicles for intravenous injection and oral administration are dimethyl sulfoxide and polyethylene glycol (15)-hydroxystearate aqueous solution in certain proportions. Whole blood samples were collected within 24 hours, centrifuged at 3200 g for 10 minutes, and the supernatant was separated to obtain plasma samples. Quantitative analysis of plasma concentrations was performed by LC-MS/MS analysis method, and pharmacokinetic parameters such as peak concentration, peak time, clearance rate, half-life, and area under the drug-time curve were calculated.

[3] = format: in vivo, cynomolgus monkeys; set-up: Tmax: unit not given here; conditions: Monkey, PO, 1 mpk of 8B; concentration of 7B detected
Protocol: as §1, §2, §3

[4] = test system: influenza A virus strain A/PR8/34; experiment: Drug efficacy assay in mice, treatment model of influenza A; format: in vivo, mice (BALB/c); conditions: 30 mpk BID intragastric, day 2 to day 8
[5] = format: in vivo; conditions: Mouse, PO, 10 mpk of 8B; concentration of 7B detected
Protocol: as §1, §2, §3

Which EC50 ([1]; Influenza A virus, 120 h) does the source give for CN1C(=O)c2c(O)c(=O)ccn2N2C1CCOc1cc(F)c(F)cc1[C@H]2c1ccccc1 (stereo partly shown) [Compound 1A] here?
The EC50 was 0.022 µM.

With O=C1c2c(O)c(=O)ccn2N2C(CCOc3cc(F)c(F)cc3[C@H]2c2ccccc2)N1C1CCC1 (stereo partly shown) [Compound 2A] as the compound, how does the EC50 ([1]; Influenza A virus, 120 h) read?
Its EC50 is 0.013 µM.

For O=C1c2c(O)c(=O)ccn2N2[C@H](c3ccccc3)c3ccccc3OCC[C@H]2N1C1CCC1 [Compound 3A], which EC50 [1] is on record?
Its EC50 is 0.037 µM.

For CC(C)N1C(=O)c2c(O)c(=O)ccn2N2C1CCOc1ccccc1[C@H]2c1ccccc1 (stereo partly shown) [Compound 4A], which EC50 ([1]; Influenza A virus, 120 h) is on record?
Its EC50 is 0.074 µM.

For COC(=O)OCOc1c2n(ccc1=O)N1[C@H](c3ccccc3)c3cc(F)c(F)cc3OCC[C@H]1N(C)C2=O [Compound 8B], which AUC [2] is on record?
Its AUC is 0.724 µM·h.

What about the Cmax [2] of the same compound?
The Cmax was 171 nM.

What about the T1/2 [2] of the same compound?
The T1/2 was 4.4 h.

And the Tmax [2]?
Its Tmax is 0.75 h.

What about the AUC [3] of the same compound?
Its AUC is 0.785 µM·h.

And the Cmax [3]?
The Cmax was 163 nM.

And the T1/2 [3]?
Its T1/2 is 3.6 h.

And the Tmax [3]?
The Tmax was 3.

What about the “Change in body weight (Percentage of starting body weight)” value ([4]; Day 3) of the same compound?
The value was −6.6 ± 1.1 Percentage of starting body weight.

And the Survival rate ([4]; Day 3)?
The Survival rate was 100%.

What about the “Change in body weight (Percentage of starting body weight)” value ([4]; Day 4) of the same compound?
Its value is −9.3 ± 0.8 Percentage of starting body weight.

What about the Survival rate ([4]; Day 4) of the same compound?
Its Survival rate is 100%.

What about the “Change in body weight (Percentage of starting body weight)” value ([4]; Day 5) of the same compound?
Its value is −8.9 ± 2.2 Percentage of starting body weight.

What about the Survival rate ([4]; Day 5) of the same compound?
Its Survival rate is 100%.

And the “Change in body weight (Percentage of starting body weight)” value ([4]; Day 6)?
Its value is −9.4 ± 1.9 Percentage of starting body weight.

And the Survival rate ([4]; Day 6)?
Its Survival rate is 100%.

And the “Change in body weight (Percentage of starting body weight)” value ([4]; Day 7)?
Its value is −7.7 ± 1.4 Percentage of starting body weight.

And the Survival rate ([4]; Day 7)?
Its Survival rate is 100%.

What about the “Change in body weight (Percentage of starting body weight)” value ([4]; Day 8) of the same compound?
The value was −0.9 ± 0.8 Percentage of starting body weight.

What about the Survival rate ([4]; Day 8) of the same compound?
Its Survival rate is 100%.

And the “Change in body weight (Percentage of starting body weight)” value ([4]; Day 9)?
The value was −0.5 ± 1.1 Percentage of starting body weight.

What about the Survival rate ([4]; Day 9) of the same compound?
Its Survival rate is 100%.

What about the “Change in body weight (Percentage of starting body weight)” value ([4]; Day 10) of the same compound?
Its value is 0.5 ± 0.6 Percentage of starting body weight.

What about the Survival rate ([4]; Day 10) of the same compound?
Its Survival rate is 100%.

What about the “Change in body weight (Percentage of starting body weight)” value ([4]; Day 11) of the same compound?
The value was 2.5 ± 0.6 Percentage of starting body weight.

And the Survival rate ([4]; Day 11)?
Its Survival rate is 100%.

What about the “Change in body weight (Percentage of starting body weight)” value ([4]; Day 12) of the same compound?
The value was 2.9 ± 1.0 Percentage of starting body weight.

And the Survival rate ([4]; Day 12)?
Its Survival rate is 100%.

And the “Change in body weight (Percentage of starting body weight)” value ([4]; Day 13)?
Its value is 2.4 ± 1.3 Percentage of starting body weight.

What about the Survival rate ([4]; Day 13) of the same compound?
The Survival rate was 100%.

And the “Change in body weight (Percentage of starting body weight)” value ([4]; Day 14)?
Its value is 2.7 ± 1.4 Percentage of starting body weight.

What about the Survival rate ([4]; Day 14) of the same compound?
Its Survival rate is 100%.

And the AUC [5]?
The AUC was 0.93 µM·h.

What about the Cmax [5] of the same compound?
The Cmax was 309 nM.

And the T1/2 [5]?
Its T1/2 is 1.3 h.

What about the Tmax [5] of the same compound?
The Tmax was 1.2 h.

Which EC50 ([1]; Influenza A virus, 120 h) does the source give for CN1C(=O)c2c(O)c(=O)ccn2N2C1CCOc1cc(F)c(F)cc1[C@H]2c1ccc(F)cc1 (stereo partly shown) [Compound 9A] here?
Its EC50 is 0.034 µM.

For CN1C(=O)c2c(O)c(=O)ccn2N2[C@H](c3ccccc3Br)c3cc(F)c(F)cc3OCC[C@@H]12 [Compound 18A], which EC50 ([1]; Influenza A virus, 120 h) is on record?
The EC50 was 0.011 µM.

For CN1C(=O)c2c(O)c(=O)ccn2N2[C@H](c3ccccc3)c3ccc(F)c(F)c3OCC[C@@H]12 [Compound 20A], which EC50 ([1]; Influenza A virus, 120 h) is on record?
The EC50 was 0.05 µM.
